One assay deals with WT and ATG4B KO HCT116. Nature of the assay: Apoptosis detection by cleaved PARP western blot. The format is cell-based. The settings on record: low or high concentrations of Ebselen; STS 2 μM; 6 h.
For the next assay, the system named is HeLa cell line. The assay can be described thus: Autophagy flux by LC3B-II western blot in HeLa. The format is cell-based. As to conditions: Torin 1 2 μM, CQ 40 μM. Here is the method: Since ATG4B is a key protein in autophagy, the experiment on the effect of Ebselen on autophagy flux was worth proposing. First of all, we determined the most classic index LC3B for autophagy flux detection in HeLa cell line. […] A, B HeLa cells were treated with Torin 1 (2 μM) or CQ (40 μM) and detected by western blot. C, D SW620 cells were transduced with sgCon and sgATG4B lentiviruses, respectively. Then cells were treated with CQ (40 μM) and detected by western blot. E, F HCT116 were treated with Ebselen (5 and 10 μM) or CQ (40 μM) and subjected to western blot. G, H SW620 were treated with Ebselen (10 μM) or CQ (40 μM) and western blotting was carried out to detect the protein levels. I, J Immunofluorescence analysis of endogenous LC3B in HCT116 treated with Ebselen (10 μM) or CQ (40 μM). Dots numbers for LC3B were derived from counting at least 20 cells and 5 fields from three independent replicated experiments. Bar = 10 μm. K HCT116 cells were treated with 2 μM Torin 1 in the presence or absence of 10 μM Ebselen for 12 h, then the level ratio of long-lived proteins was measured by flow cytometry
(In general: Immunoblotting shows a protein as a band on a membrane.)

For another assay, the system named is CASP3. Set-up: method as in PMID 23632366, PMID 25468037. As to conditions: cited from earlier work.

Each structure is given as a SMILES string.

Regarding `CN[C@@H]1C[C@H]2O[C@@](C)([C@@H]1OC)n1c3ccccc3c3c4c(c5c6ccccc6n2c5c31)C(=O)NC4` [Staurosporine (STS), Staurosporine], the “apoptosis (cleaved PARP)” value in the assay with WT and ATG4B KO HCT116 is “generation of apoptosis”.

As for `CCC(=O)N1CCN(c2ccc(-n3c(=O)ccc4cnc5ccc(-c6cnc7ccccc7c6)cc5c43)cc2C(F)(F)F)CC1` [Torin 1], the “effect on autophagy (LC3B-II accumulation with CQ)” value in the assay on HeLa cell line was “autophagy inducer”.

As to `O=c1c2ccccc2sn1-c1ccccc1` [Ebsulfur], the “inhibition on CASP3” value in the assay with CASP3 is on record as “clear inhibition”.

The values are drawn from paper PMC9767854, “Discovery and mechanism studies of a novel ATG4B inhibitor Ebselen by drug repurposing and its anti-colorectal cancer effects in mice” (Cell & Bioscience, 2022).
